The test deals with T1, human orexin-2 (hOX2) receptor (Homo sapiens, UniProt O43614).
T1 construct: expressed in transfected cells
T1 sequence (O43614 1-444): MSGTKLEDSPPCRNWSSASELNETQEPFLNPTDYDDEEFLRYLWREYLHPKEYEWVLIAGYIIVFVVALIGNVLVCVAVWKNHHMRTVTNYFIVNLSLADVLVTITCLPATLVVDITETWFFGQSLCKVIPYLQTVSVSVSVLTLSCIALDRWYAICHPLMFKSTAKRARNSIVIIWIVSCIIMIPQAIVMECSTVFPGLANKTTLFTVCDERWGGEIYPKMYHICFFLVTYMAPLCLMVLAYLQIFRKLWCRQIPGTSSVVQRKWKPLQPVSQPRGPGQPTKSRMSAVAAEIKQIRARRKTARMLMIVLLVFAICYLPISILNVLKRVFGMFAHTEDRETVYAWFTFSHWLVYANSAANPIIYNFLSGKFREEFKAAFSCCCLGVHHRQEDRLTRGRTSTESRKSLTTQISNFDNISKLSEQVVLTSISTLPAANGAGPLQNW
The test can be described thus: Intracellular Ca2+ mobilization assay (FLIPR), antagonism of orexin-A at EC80. In kind it is cell-based. As to conditions: CHO(dHFr-) cells stably expressing hOX2; orexin-A at EC80 as agonist; antagonist applied 25 min before; Kb=IC50/(1+[A]/EC50); read-out: Kb (μM) OX2R (human). As for the experimental part: Intracellular Ca^2+ Mobilization Assay
The Chinese Hamster Ovary (dHFr-) mutant cell line stably expressing human orexin-1 (hOX1) or human orexin-2 (hOX2) receptors were maintained in Dulbecco's Modified Eagle Medium (1×) with GlutaMax™1, 4500 mg/L D-Glucose and Sodium Pyruvate (Catalog No. 31966-021, Invitrogen, Carlsbad, Calif.), 5% dialyzed fetal calf serum (Catalog No. 26400-044), 100 μg/ml penicillin and 100 μg/ml streptomycin. The cells were seeded at 5×10^4 cells/well in the poly-D-lysine treated, 96-well, black/clear-bottomed plates (Catalog No. BD356640, BD Biosciences, Palo Alto, Calif.). 24 h later, the cells were loaded for 1 h at 37° C. with 4 μM Flou-4 acetoxymethyl ester (Catalog No. F-14202, Molecular Probes, Eugene, Oreg.) in FLIPR buffer (1×HBSS, 20 mM HEPES, 2.5 mM Probenecid). Hanks' Balanced Salt Solution (HBSS) (10×) (catalog No. 14065-049) and HEPES (1M) (catalog No. 15630-056) were purchased from Invitrogen, Carlsbad, Calif. Probenecid (250 mM) (catalog No. P8761) was from Sigma, Buchs, Switzerland. The cells were washed five times with FLIPR buffer to remove excess dye and intracellular calcium mobilization, [Ca^2+]i were measured using a Fluorometric Imaging Plate Reader (FLIPR-96, Molecular Devices, Menlo Park, Calif.) as described previously (Malherbe et al., Mol. Pharmacol., 64, 823-832, 2003). Orexin A (catalog No. 1455, Toris Cookson Ltd, Bristol, UK) was used as agonist. Orexin A ([…] stock solution in DMSO) was diluted in FLIPR buffer+0.1% BSA. The EC50 and EC80 values of orexin-A were measured daily from standard agonist concentration-response curves in CHO(dHFr-)-OX1R and -OX2R cell lines. All compounds were dissolved in 100% DMSO. Inhibition curves were determined by addition of 11 concentrations (0.0001-10 μM) of inhibitory compounds and using EC80 value of orexin-A as agonist (a concentration which gave 80% of max agonist response, determined daily). The antagonists were applied 25 min (incubation at 37° C.) before the application of the agonist. Responses were measured as peak increase in fluorescence minus basal, normalized to the maximal stimulatory effect induced by EC80 value of orexin-A or orexin-B. Inhibition curves were fitted according to the Hill equation: y=100/(1+(x/IC50)^nH), where nH=slope factor using Excel-fit 4 software (Microsoft). Kb values were calculated according to the following equation Kb=IC50/(1+[A]/EC50) where A is the concentration of agonist added which is very close to agonist EC80 value, and IC50 and EC50 values were derived from the antagonist inhibition and orexin-A or B agonist curves, respectively.
With `COc1cccc(OC)c1C(=O)N1CC[C@@H](CNc2nc3ccc(Cl)cc3o2)C1` [Example 2, {(S)-3-[(6-Chloro-benzooxazol-2-ylamino)-methyl]-pyrrolidin-1-yl}-(2,6-dimethoxy-phenyl)-methanone], the Kb is 0.0573 µM.
The same measure for `COc1ccc(C)cc1C(=O)N1CC[C@@H](CNc2cnc3cc(Cl)ccc3n2)C1` [Example 32, {(S)-3-[(6-Chloro-quinoxalin-2-ylamino)-methyl]-pyrrolidin-1-yl}-(2-methoxy-5-methyl-phenyl)-methanone]: 0.185 µM.
In the case of `O=C(c1ccccc1OC(F)(F)F)N1CC[C@@H](CNc2cnc3cc(Cl)ccc3n2)C1` [Example 26, {(S)-3-[(6-Chloro-quinoxalin-2-ylamino)-methyl]-pyrrolidin-1-yl}-(2-trifluoromethoxy-phenyl)-methanone], the Kb was determined as 0.178 µM.
The same measure for `O=C(c1ccccc1OC(F)(F)C(F)F)N1CC[C@@H](CNc2nc3cccc(F)c3o2)C1` [Example 20, {(S)-3-[(7-Fluoro-benzooxazol-2-ylamino)-methyl]-pyrrolidin-1-yl}-[2-(1,1,2,2-tetrafluoro-ethoxy)-phenyl]-methanone]: 0.0772 µM.
With `O=C(c1ccccc1OC(F)(F)F)N1CC[C@@H](CNc2nc3ccc(F)cc3s2)C1` [Example 4, {(S)-3-[(6-Fluoro-benzothiazol-2-ylamino)-methyl]-pyrrolidin-1-yl}-(2-trifluoromethoxy-phenyl)-methanone], the Kb was 0.129 µM.
The same measure for `Cc1ccc(Cl)c(C(=O)N2CC[C@@H](CNc3nc4ccc(Cl)cc4o3)C2)c1` [Example 17, {(S)-3-[(6-Chloro-benzooxazol-2-ylamino)-methyl]-pyrrolidin-1-yl}-(2-chloro-5-methyl-phenyl)-methanone]: 0.565 µM; for `O=C(c1ccccc1OC(F)(F)F)N1CC[C@@H](CNc2nc3cccc(F)c3o2)C1` [Example 19, {(S)-3-[(7-Fluoro-benzooxazol-2-ylamino)-methyl]-pyrrolidin-1-yl}-(2-trifluoromethoxy-phenyl)-methanone]: 0.69 µM; for `O=C(c1ccccc1OC(F)(F)C(F)F)N1CC[C@@H](CNc2cnc3cc(Cl)ccc3n2)C1` [Example 27, {(S)-3-[(6-Chloro-quinoxalin-2-ylamino)-methyl]-pyrrolidin-1-yl}-[2-(1,1,2,2-tetrafluoro-ethoxy)-phenyl]-methanone]: 0.0839 µM.
Under `O=C(c1cnoc1-c1ccccc1)N1CC[C@@H](CNc2nc3cccc(F)c3o2)C1` [Example 23, {(S)-3-[(7-Fluoro-benzooxazol-2-ylamino)-methyl]-pyrrolidin-1-yl}-(5-phenyl-isoxazol-4-yl)-methanone] stands 0.123 µM; under `COc1ccc(C)cc1C(=O)N1CC[C@@H](CNc2nc3ccc(F)cc3s2)C1` [Example 10, {(S)-3-[(6-Fluoro-benzothiazol-2-ylamino)-methyl]-pyrrolidin-1-yl}-(2-methoxy-5-methyl-phenyl)-methanone], 0.165 µM.
As to `O=C(c1cnoc1-c1ccccc1)N1CC[C@@H](CNc2nc3ccc(F)cc3s2)C1` [Example 8, {(S)-3-[(6-Fluoro-benzothiazol-2-ylamino)-methyl]-pyrrolidin-1-yl}-(5-phenyl-isoxazol-4-yl)-methanone], the Kb turned out to be 0.0829 µM.
The same measure for `Cc1onc(-c2ccccc2)c1C(=O)N1CC[C@@H](CNc2nc3cccc(F)c3o2)C1` [Example 22, {(S)-3-[(7-Fluoro-benzooxazol-2-ylamino)-methyl]-pyrrolidin-1-yl}-(5-methyl-3-phenyl-isoxazol-4-yl)-methanone]: 0.0566 µM; for `O=C(c1cnoc1-c1ccccc1)N1CC[C@@H](CNc2cnc3cc(Cl)ccc3n2)C1` [Example 30, {(S)-3-[(6-Chloro-quinoxalin-2-ylamino)-methyl]-pyrrolidin-1-yl}-(5-phenyl-isoxazol-4-yl)-methanone]: 0.34 µM.
In the case of `O=C(c1ccccc1C(F)(F)F)N1CC[C@@H](CNc2nc3ccc(F)cc3s2)C1` [Example 3, {(S)-3-[(6-Fluoro-benzothiazol-2-ylamino)-methyl]-pyrrolidin-1-yl}-(2-trifluoromethyl-phenyl)-methanone], the Kb amounted to 0.207 µM.
On to `O=C(c1cnoc1-c1ccccc1)N1CC[C@@H](CNc2nc3ccc(Cl)cc3o2)C1` [Example 16, {(S)-3-[(6-Chloro-benzooxazol-2-ylamino)-methyl]-pyrrolidin-1-yl}-(5-phenyl-isoxazol-4-yl)-methanone], for which the Kb came out at 0.147 µM.
Regarding `Cc1onc(-c2ccccc2)c1C(=O)N1CC[C@@H](CNc2nc3ccc(F)cc3s2)C1` [Example 7, {(S)-3-[(6-Fluoro-benzothiazol-2-ylamino)-methyl]-pyrrolidin-1-yl}-(5-methyl-3-phenyl-isoxazol-4-yl)-methanone], the Kb was determined as 0.0623 µM.
In the case of `COc1ccc(C)cc1C(=O)N1CC[C@@H](CNc2nc3ccc(Cl)cc3o2)C1` [Example 18, {(S)-3-[(6-Chloro-benzooxazol-2-ylamino)-methyl]-pyrrolidin-1-yl}-(2-methoxy-5-methyl-phenyl)-methanone], the Kb is 0.355 µM.
Turning to `Cc1ccc(C(F)(F)F)c(C(=O)N2CC[C@@H](CNc3nc4cccc(F)c4o3)C2)c1` [Example 21, {(S)-3-[(7-Fluoro-benzooxazol-2-ylamino)-methyl]-pyrrolidin-1-yl}-(5-methyl-2-trifluoromethyl-phenyl)-methanone], the Kb was found to be 0.396 µM.
The same measure for `O=C(c1ccccc1OC(F)(F)C(F)F)N1CC[C@@H](CNc2nc3ccc(F)cc3s2)C1` [Example 5, {(S)-3-[(6-Fluoro-benzothiazol-2-ylamino)-methyl]-pyrrolidin-1-yl}-[2-(1,1,2,2-tetrafluoro-ethoxy)-phenyl]-methanone]: 0.0318 µM.
`O=C(c1ccccc1C(F)(F)F)N1CC[C@@H](CNc2nc3ccc(Cl)cc3o2)C1` [Example 11, {(S)-3-[(6-Chloro-benzooxazol-2-ylamino)-methyl]-pyrrolidin-1-yl}-(2-trifluoromethyl-phenyl)-methanone]: the Kb was 0.726 µM.
For `Cc1ccc(C(F)(F)F)c(C(=O)N2CC[C@@H](CNc3cnc4cc(Cl)ccc4n3)C2)c1` [Example 28, {(S)-3-[(6-Chloro-quinoxalin-2-ylamino)-methyl]-pyrrolidin-1-yl}-(5-methyl-2-trifluoromethyl-phenyl)-methanone], the Kb came to 0.331 µM.
For `Cc1onc(-c2ccccc2)c1C(=O)N1CC[C@@H](CNc2cnc3cc(Cl)ccc3n2)C1` [Example 29, {(S)-3-[(6-Chloro-quinoxalin-2-ylamino)-methyl]-pyrrolidin-1-yl}-(5-methyl-3-phenyl-isoxazol-4-yl)-methanone], the Kb was 0.407 µM.
As to `Cc1ccc(Cl)c(C(=O)N2CC[C@@H](CNc3nc4cccc(F)c4o3)C2)c1` [Example 24, (2-Chloro-5-methyl-phenyl)-{(S)-3-[(7-fluoro-benzooxazol-2-ylamino)-methyl]-pyrrolidin-1-yl}-methanone], the Kb came to 0.754 µM.
With `COc1ccc(C)cc1C(=O)N1CC[C@@H](CNc2nc3cccc(F)c3o2)C1` [Example 25, {(S)-3-[(7-Fluoro-benzooxazol-2-ylamino)-methyl]-pyrrolidin-1-yl}-(2-methoxy-5-methyl-phenyl)-methanone], the Kb came to 0.675 µM.
For `Cc1ccc(Cl)c(C(=O)N2CC[C@@H](CNc3nc4ccc(F)cc4s3)C2)c1` [Example 9, (2-Chloro-5-methyl-phenyl)-{(S)-3-[(6-fluoro-benzothiazol-2-ylamino)-methyl]-pyrrolidin-1-yl}-methanone], the Kb is 0.337 µM.

Values taken from patent US8748430B2, “Pyrrolidin-3yl-methylamine quinoxaline derivatives” (Hoffmann-La Roche Inc, priority 2008, dated 2014).
